Assay results: PubChem BioAssay (NCI)
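Assay format: 96-well plates, 48-hour exposure. Here, GI50 denotes the concentration required for 50% inhibition of growth. TGI: concentration producing complete growth inhibition.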

Experiments:
Assay in all cases: NCI anticancer screen, dose series, 48 h
[1] = tested on: EKVX NSCLC
[2] = tested on: PC-3 prostate
[3] = tested on: OVCAR-3 ovarian
[4] = tested on: NCI/ADR-RES ovarian
[5] = tested on: SW-620 colon
[6] = tested on: HCC-2998 colon
[7] = tested on: T-47D breast
[8] = tested on: CAKI-1 renal
[9] = tested on: A549 NSCLC
[10] = tested on: SK-MEL-5 melanoma
[11] = tested on: OVCAR-8 ovarian
[12] = tested on: HS 578T breast
[13] = tested on: UO-31 renal
[14] = tested on: COLO 205 colon
[15] = tested on: SNB-75 CNS
[16] = tested on: SK-OV-3 ovarian
[17] = tested on: M14 melanoma
[18] = tested on: UACC-62 melanoma
[19] = tested on: IGROV1 ovarian
[20] = tested on: SF-268 CNS
[21] = tested on: MALME-3M melanoma
[22] = tested on: SNB-19 CNS
[23] = tested on: NCI-H23 lung
[24] = tested on: OVCAR-4 ovarian
[25] = tested on: ACHN renal
[26] = tested on: SF-539 CNS
[27] = tested on: U251 CNS
[28] = tested on: CCRF-CEM leukemia
[29] = tested on: 786-0 renal

**Q.** How did the GI50 [1] turn out when Cc1c(NC(=O)c2cc(C(N)=O)nc3cc(F)ccc23)c(C(F)(F)F)nn1Cc1ccc(C#N)cc1 was run?
**A.** 21.9 µM

**Q.** What about the TGI [1] of the same compound?
**A.** > 100 µM

**Q.** What about the GI50 [2] of the same compound?
**A.** 0.451 µM

**Q.** What about the TGI [2] of the same compound?
**A.** 24.4 µM

**Q.** And the GI50 [3]?
**A.** 2.4 µM

**Q.** And the TGI [3]?
**A.** > 64.5 µM

**Q.** And the GI50 [4]?
**A.** 12.3 µM

**Q.** What about the TGI [4] of the same compound?
**A.** > 100 µM

**Q.** What about the GI50 [5] of the same compound?
**A.** 23.8 µM

**Q.** What about the TGI [5] of the same compound?
**A.** > 100 µM

**Q.** What about the GI50 [6] of the same compound?
**A.** 5.16 µM

**Q.** And the TGI [6]?
**A.** > 100 µM

**Q.** And the GI50 [7]?
**A.** 0.295 µM

**Q.** And the TGI [7]?
**A.** 31.3 µM

**Q.** And the GI50 [8]?
**A.** 5.66 µM

**Q.** And the TGI [8]?
**A.** 35.1 µM

**Q.** What about the GI50 [9] of the same compound?
**A.** 16.6 µM

**Q.** What about the TGI [9] of the same compound?
**A.** > 100 µM

**Q.** What about the GI50 [10] of the same compound?
**A.** 16.3 µM

**Q.** And the TGI [10]?
**A.** > 100 µM

**Q.** And the GI50 [11]?
**A.** 7.02 µM

**Q.** And the TGI [11]?
**A.** > 100 µM

**Q.** And the GI50 [12]?
**A.** 0.0592 µM

**Q.** What about the TGI [12] of the same compound?
**A.** 8.46 µM

**Q.** And the GI50 [13]?
**A.** 1.78 µM

**Q.** What about the TGI [13] of the same compound?
**A.** > 100 µM

**Q.** What about the GI50 [14] of the same compound?
**A.** 0.504 µM

**Q.** What about the TGI [14] of the same compound?
**A.** 3.23 µM

**Q.** What about the GI50 [15] of the same compound?
**A.** 5.8 µM

**Q.** And the TGI [15]?
**A.** 45.2 µM

**Q.** What about the GI50 [16] of the same compound?
**A.** 2.76 µM

**Q.** And the TGI [16]?
**A.** 21.4 µM

**Q.** And the GI50 [17]?
**A.** 58.8 µM

**Q.** And the TGI [17]?
**A.** > 100 µM

**Q.** And the GI50 [18]?
**A.** 6.35 µM

**Q.** And the TGI [18]?
**A.** > 100 µM

**Q.** What about the GI50 [19] of the same compound?
**A.** 2.02 µM

**Q.** What about the TGI [19] of the same compound?
**A.** > 80.7 µM

**Q.** What about the GI50 [20] of the same compound?
**A.** 14.3 µM

**Q.** And the TGI [20]?
**A.** > 69.3 µM

**Q.** What about the GI50 [21] of the same compound?
**A.** 14.4 µM

**Q.** What about the TGI [21] of the same compound?
**A.** 74.5 µM

**Q.** What about the GI50 [22] of the same compound?
**A.** 3.44 µM

**Q.** And the TGI [22]?
**A.** 30 µM

**Q.** What about the GI50 [23] of the same compound?
**A.** 22.2 µM

**Q.** And the TGI [23]?
**A.** > 100 µM

**Q.** What about the GI50 [24] of the same compound?
**A.** 4.91 µM

**Q.** And the TGI [24]?
**A.** > 76.9 µM

**Q.** And the GI50 [25]?
**A.** 12.4 µM

**Q.** What about the TGI [25] of the same compound?
**A.** 71.1 µM

**Q.** What about the GI50 [26] of the same compound?
**A.** 14.3 µM

**Q.** And the TGI [26]?
**A.** 49.6 µM

**Q.** What about the GI50 [27] of the same compound?
**A.** 1.67 µM

**Q.** What about the TGI [27] of the same compound?
**A.** 18.9 µM

**Q.** And the GI50 [28]?
**A.** 0.167 µM

**Q.** And the TGI [28]?
**A.** > 100 µM

**Q.** What about the GI50 [29] of the same compound?
**A.** 3.77 µM

**Q.** And the TGI [29]?
**A.** > 100 µM
